Data taken from patent US9381255B2, “Formulations comprising T3 nanoparticles” (Avant Garde Therapeutics and Technologies LLC, priority 2009, dated 2016).

Experiment: Blood levels of T3 after intraperitoneal administration in mice
Assay type: in vivo
Protocol: This T3-nanoparticle is administered intraperitoneally in mice.

amount of T3 remaining in the blood over time (intraperitoneal, FIG. 8A): A lesser amount of T3 remains over time
Structure (SMILES): N[C@@H](Cc1cc(I)c(Oc2ccc(O)c(I)c2)c(I)c1)C(=O)O [free T3, triiodothyronine]
T3 blood levels (intraperitoneal injection, FIG. 8B): increased T3 blood levels which were followed by a subsequent leveling off
